Measured values from patent US4714699A, “2-tolylmorpholine derivatives and pharmaceutical compositions” (Societe Anonyme Dite: Laboratoire L. Lafon, priority 1983, dated 1987).
“Also recorded” adds a separate entry of the source.

Assays:
[1] = interaction with oxotremorine; type: in vivo, male mice
Procedure: (§1) In the following tests, CRL 40 875, in solution in distilled water, was administered intraperitoneally in a volume of 20 ml/kg to male mice and 5 ml/kg to male rats.
CRL 40 875 is administered to groups of 6 mice half an hour before the intraperitoneal injection of 0.5 mg/kg of oxotremorine.
(§2) In the following tests, CRL 40 897, in solution in distilled water (pH 4), was administered intraperitoneally in a volume of 20 ml/kg to male mice and in a volume of 5 ml/kg to male rats, the procedures being those given above for CRL 40 875.
(§3) In the tests undertaken, CRL 40 912, in solution in distilled water (pH 4.5), was administered intraperitoneally in a volume of 20 ml/kg to male mice and in a volume of 5 ml/kg to male rats, the procedures being those given above for CRL 40 875.

[2] = action on the spontaneous motility; type: in vivo, male mice; conditions: mice
Procedure: as §1
Half an hour after they have received CRL 40 875, the mice (6 per dose, 12 control animals) are placed in an actimeter, where their motility is recorded for 30 minutes.
as §2

four plate test = type: in vivo, male mice; conditions: i.p., mice
Procedure: as §1
(§4) The test is performed on groups of 10 mice half an hour after the administration of CRL 40 875.
as §2

[3] = overall behavior and reactivities in mice; type: in vivo, male mice
Procedure: as §1
Groups of three mice are observed before and then 15 minutes, 30 minutes, 1 hour, 2 hours, 3 hours and 24 hours after the administration of CRL 40 875.
as §2
(§5) The toxicological and neuropsychopharmacological studies undertaken in accordance with the procedures described above for CRL 40 875 enabled the following observations to be made: […]

electric shock = type: in vivo, male mice; conditions: i.p., mice
Procedure: as §1, §4, §2

[4] = pretoxicity (LD-O, maximum non-lethal dose); type: in vivo, male mice
Procedure: as §1, §2, §3, §5

[5] = action on the intergroup aggressiveness; type: in vivo, male mice; conditions: i.p., mice
Procedure: as §1
After they have stayed for 3 weeks in the two halves of a cage divided by an opaque partition, groups of 3 mice receive CRL 40 875. Half an hour later, the two groups from the same cage are brought together by removal of the partition, and the number of fights which occur in 10 minutes is noted.
as §2, §3

[6] = interaction with apomorphine in mice; type: in vivo, male mice
Procedure: as §1
Groups of 6 mice receive CRL 40 875 0.5 hour before the subcutaneous injection of 1 or 16 mg/kg of apomorphine.
as §2, §3

traction test = type: in vivo, male mice; conditions: i.p., mice
Procedure: as §1, §4, §2

[7] = interaction with reserpine; type: in vivo, male mice; conditions: i.p.
Procedure: as §1
Four hours after the intraperitoneal injection of 2.5 mg/kg of reserpine, groups of 6 mice receive CRL 40 875. The effects on the temperature and ptosis are observed.
as §2, §3

[8] = motility reduced by habituation to the enclosure; type: in vivo, male mice; conditions: i.p.
Procedure: as §1
After they have stayed in the actimeters for 18 hours, the mice (6 per dose, 12 control animals) receive CRL 40 875. They are immediately returned to their respective enclosures and, half an hour later, their motility is recorded for 30 minutes.
as §2, §3

[9] = clinical trials, treatment of depressions; type: in vivo; conditions: man
Description: In clinical trials, good results were obtained on man with CRL 40 875 (Example 1), CRL 40 912 (Example 2) and CRL 40 897 (Example 3) in the treatment of depressions.

[10] = interaction with apomorphine in rats; type: in vivo, male rats; conditions: i.p., 0.5 mg/kg apomorphine
Procedure: as §1
CRL 40 875 is administered to groups of 6 rats 0.5 hour before the subcutaneous injection of 0.5 mg/kg of apomorphine.
as §2, §3

α-adrenergic = α-adrenergic stimulation; conditions: in vivo
[11] = neuropsychopharmacological study, overall findings; type: in vivo, mice, rats; conditions: for variation of sedative effects with dose: in vivo; for antidepressant effects: strong doses; for sedative effects: weak doses where stated
Procedure: as §1, §2, §3, §5

[12] = asphyxiant anoxia (gallamine triiodoethylate); type: in vivo, male mice; conditions: i.p., mice
Procedure: as §1
Groups of 20 mice receive CRL 40 875 half an hour before the intraperitoneal administration of 32 mg/kg of gallamine triidoethylate (which is a reference curarizing agent).
as §2, §3

[13] = interaction with amphetamine; type: in vivo, male rats; conditions: i.p.; 2 mg/kg amphetamine; rats
Procedure: as §1, §2, §3

[14] = motility reduced by hypoxic aggression; type: in vivo, male mice; conditions: i.p.
Procedure: as §1
Half an hour after they have received CRL 40 875, the mice (10 per dose, 20 control animals) are subjected to acute hypobaric anoxia [pressure reduction of 600 mm Hg (i.e. about 8×10^4 pascals) in 90 seconds; release of vacuum in 45 seconds] and are then placed in an actimeter, where their motility is recorded for 10 minutes.
as §2

[15] = cardiovascular study in dogs; type: in vivo
[16] = cardiovascular study in rats; type: in vivo; conditions: wake rats
[17] = high dose (64 mg/kg) i.p., mice
[18] = anesthetized dogs, intraduodenal (CRL 40 903: then intravenous)
[19] = intraduodenal, anesthetized dogs

Which results are given for `Cc1ccc(C2CN(C)CCO2)cc1.Cl` (stereo not drawn) [CRL 40 897, 2-p-tolyl-4-methylmorpholine hydrochloride]?
minimal effective dose ([1]; Mus musculus, ip, mice, read-out: dose as from which hypothermic effect is distinct): ≥ 4 mg/kg; effect on the temperature drop induced by oxotremorine [1, 17]: partially counteracts the temperature drop induced by oxotremorine; effect on signs of peripheral cholinergic stimulation induced by oxotremorine ([1]; i.p., mice): leaves unchanged the signs of peripheral cholinergic stimulation induced by oxotremorine; effect on the trembling due to oxotremorine ([1]; i.p., mice): not influenced; minimal effective dose ([2]; Mus musculus, ip, read-out: dose as from which motility is reduced): ≥ 4 mg/kg; effect on spontaneous motor activity ([2]; as from 4 mg/kg i.p.): depresses the spontaneous motor activity of mice; number of punished passes (four plate test): does not cause an increase in the number of punished passes; duration of hypothermia ([3]; 4 mg/kg i.p., mice): 0.5 h; hypothermia (temperature change) ([3]; 4 mg/kg i.p., mice): -2.2 °C; duration of hypothermia ([3]; 16 mg/kg i.p., mice): 0.5 h; hypothermia (temperature change) ([3]; 16 mg/kg i.p., mice): -2.4 °C; depressed respiration, animals affected ([3]; 64 mg/kg i.p., mice): 2/3; duration of depressed respiration ([3]; 64 mg/kg i.p., mice): 3 h; duration of sedation ([3]; 64 mg/kg i.p., mice): 3 h; duration of significant salivation ([3]; 64 mg/kg i.p., mice): 1 h; hypothermia (temperature change) ([3]; 64 mg/kg i.p., mice): -2.2 °C; sedation, animals affected ([3]; 64 mg/kg i.p., mice): 3 out of 3; significant salivation, animals affected ([3]; 64 mg/kg i.p., mice): 3/3; effect on electric shock (electric shock): does not modify the convulsant and lethal effects of electric shock; signs of toxicity ([4]; 64 mg/kg i.p., mice): dyspnea, sedation; trembling, animals affected ([4]; 64 mg/kg i.p., mice): 1/3; mortality ([4]; 128 mg/kg i.p., groups of three mice): no mortality; signs of toxicity ([4]; 128 mg/kg i.p., groups of three mice, hydrochloride): dyspnea, trembling; also recorded: sedation; convulsions, animals affected ([4]; 128 mg/kg i.p., mice): 2/3; convulsions, animals affected ([4]; 256 mg/kg i.p., mice): 2/3; copious salivation, animals affected ([4]; 256 mg/kg i.p., mice): 1 out of 3; death, animals affected ([4]; 256 mg/kg i.p., mice): 3/3; signs of toxicity ([4]; 256 mg/kg i.p., mice): dyspnea; time to death ([4]; 256 mg/kg i.p., mice): 10 min; effect on aggressiveness / number of fights [5]: does not cause a distinct reduction in the number of fights; minimal effective dose ([6]; Mus musculus, ip, mice, read-out: dose as from which hypothermic effect is present): ≥ 4 mg/kg; effect on the temperature drop induced by apomorphine [6, 17]: partially counteracts the temperature drop induced by apomorphine; effect on righting behavior and stereotypies ([6]; i.p., apomorphine, mice): without modifying the righting behavior and the stereotypies; major motor incapacity (traction test): does not cause major motor incapacity; effect on the hypothermia and ptosis induced by reserpine ([7]; mice): does not modify the hypothermia and ptosis induced by reserpine; resumption in the activity of mice accustomed to their enclosure [8]: does not cause a resumption in the activity of mice accustomed to their enclosure; results in the treatment of depressions [9]: good results; effect on stereotypies induced by apomorphine [10]: does not modify the stereotypies induced by apomorphine; α-adrenergic stimulant effect (α-adrenergic): stimulant effects, especially of the α-adrenergic type; variation of sedative effects with dose [11]: increase continuously with the dose administered, up to a maximum value, and then decrease continuously and progressively as the dose increases; antidepressant effects [11]: antidepressants at strong doses; sedative effects [11]: sedative effects (hypomotility, hypothermia, reduction of intergroup aggressiveness; time taken for convulsions and death to occur following asphyxiant anoxia [12]: delays the time taken for convulsions and death to occur; effect on stereotypies induced by amphetamine [13]: The increase observed in the other groups merely reflect this anomaly; motor recovery in mice after reduced-pressure enclosure [14]: does not cause any improvement in the motor recovery

Which hypothermia ([3]; 64 mg/kg i.p., male mice) does the source give for `Cc1ccccc1C1CN(C(C)(C)C)CCO1` (stereo not drawn) [CRL 40 910, 2-o-tolyl-4-tert.-butylmorpholine] here?
The hypothermia was “moderate hypothermia”.

And the duration of hypothermia ([3]; 64 mg/kg i.p., mice)?
The duration of hypothermia was 0.5 h.

And the “femoral and vertebral flow rates” value ([15]; 0.5 mg/kg intraduodenally, anesthetized dogs)?
Its value is “significantly increases the femoral and vertebral flow rates”.

What about the “effect of propanolol on the increase in femoral flow rate” value ([15]; anesthetized dogs, intraduodenal) of the same compound?
The value was “not totally inhibited by propanolol”.

And the “dose as from which tachycardia appears” value [15, 18]?
Its value is 1 mg/kg.

What about the “effect on the hypertension induced by noradrenaline” value [15, 18] of the same compound?
Its value is “reduces the hypertension induced by noradrenaline”.

What about the “effect on the hypotension / effects of isoprenaline” value [15, 18] of the same compound?
Its value is “does not modify the effects of isoprenaline”.

What about the vasodilator property ([15]; dog, in vivo) of the same compound?
Its vasodilator property is “particularly interesting as vasodilators”.

What about the effect on respiration [15, 19] of the same compound?
Its effect on respiration is “stimulates respiration in dogs”.

What about the “rectal and skin temperatures” value [15, 19] of the same compound?
The value was “increase progressively”.

What about the “tachycardia, degree” value [15, 19] of the same compound?
The value was “remains weak”.

And the venous pressure [15, 19]?
The venous pressure was “increase progressively, as does the venous pressure”.

And the “effect of propanolol on the effects on heart beat and vertebral flow rate” value ([15]; propanolol 1 mg/kg intravenously, anesthetized dogs)?
Its value is “antagonized by propanolol”.

And the “LD-O (maximum non-lethal dose)” value ([4]; intraperitoneally, male mice)?
Its value is “greater than 128 mg/kg”.

What about the sedative effects [11] of the same compound?
The sedative effects was “sedative effects”.

With `Cc1cccc(C2CN(C)CCO2)c1.Cl` (stereo not drawn) [CRL 40 912, 2-m-tolyl-4-methylmorpholine hydrochloride] as the compound, how does the “effect on the temperature drop caused by oxotremorine” value ([1]; strong dose, i.p.) read?
Its value is “opposes the hypothermic effects of apomorphine and oxotremorine”.

What about the bradycardia [16] of the same compound?
The bradycardia was “bradycardia is of short duration”.

And the mean blood pressure [16]?
The mean blood pressure was “no action on the mean blood pressure”.

What about the “effect on blood pressure” value ([15]; 1 mg/kg i.p., anesthetized dogs) of the same compound?
The value was “hypertensive agent”.

And the “effect on hypertensive action” value ([15]; 5 mg/kg i.p., anesthetized dogs)?
The value was “this effect decreases”.

And the “dose as from which bradycardia is caused” value ([15]; i.p., anesthetized dogs)?
Its value is at least 5 mg/kg.

And the “effect on aggressiveness / number of fights” value [5]?
Its value is “reduction of aggressiveness”.

What about the “effect on the hypothermic effects of apomorphine” value ([6]; strong dose, i.p.) of the same compound?
Its value is “opposes the hypothermic effects of apomorphine”.

And the “effect on the ptosis induced by reserpine” value ([7]; mice)?
Its value is “significant antagonism of the ptosis induced by reserpine”.

And the “effect on the hypothermic effects of reserpine” value ([7]; weaker dose)?
Its value is “opposes those of reserpine”.

What about the “resumption in the activity of mice accustomed to their enclosure” value [8] of the same compound?
Its value is “does not cause a resumption in the motor activity of mice accustomed to their enclosure”.

What about the “results in the treatment of depressions” value [9] of the same compound?
The value was “good results”.

And the α-adrenergic stimulant effect (α-adrenergic; hydrochloride)?
The α-adrenergic stimulant effect was “effect of the α-stimulant type; also recorded: very distinct peripheral α-adrenergic stimulant action (piloerection, exophthalmos, significant antagonism of the ptosis induced by reserpine); also recorded: stimulant effects, especially of the α-adrenergic type”.

And the “variation of sedative effects with dose” value [11]?
Its value is “increase continuously with the dose administered, up to a maximum value, and then decrease continuously and progressively as the dose increases”.

And the antidepressant effects ([11]; hydrochloride)?
The antidepressant effects was “antidepressant at a strong dose; also recorded: antidepressants at strong doses”.

And the sedative effects ([11]; hydrochloride)?
Its sedative effects is “sedative effects (hypomotility, hypothermia) comparable to those of α-adrenergic blocking substances or to clonidine; also recorded: acts as a sedative at a weak dose; also recorded: sedative effects (hypomotility, hypothermia, reduction of intergroup aggressiveness”.

What about the “time taken for convulsions and death to occur following asphyxiant anoxia” value [12] of the same compound?
The value was “delay in the time taken for convulsions and death to occur”.

And the “effect on stereotypies induced by amphetamine” value [13]?
Its value is “does not reduce the intensity of the stereotypies induced by amphetamine”.
